Results on 16 compounds are retold here after PubChem BioAssay (NCI).

Values joined by “and” are separate entries in the source; they are usually repeats but may differ in a detail not shown here. Identical values can stand only once.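 96-well plates; 48 h exposure; 5 concentrations. Endpoints by linear interpolation between flanking doses. Not reached: highest tested concentration assigned. At the GI50, growth is halved. The concentration for full growth arrest is given as TGI.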

The subject of the first experiment is HOP-92 NSCLC. Description: NCI-60 cell line screen, 48 h.
In the case of `COc1ccc(-c2oc(=O)ccc2-c2cc(OC)c(OC)c(OC)c2)cc1F`, the GI50 was 5.69 µM and the TGI was 65 µM.
Consider `O=C(c1ccc(F)c(F)c1Nc1ccc(I)cc1F)N1CC(O)([C@@H]2CCCCN2)C1`, for which the GI50 is 0.0207 µM and 0.0577 µM; the TGI was 0.239 µM and 0.65 µM.
In the case of `Oc1cc(O)c2c(c1)OC(c1ccc(O)c(O)c1)C(OC1(c3cc(O)c(O)c(O)c3)Oc3cc(O)cc(O)c3C(O)C1O)C2` (configuration not stated), the TGI was found to be 84.4 µM.
On to `COc1cc(CNCCCN2C(=O)c3ccc4c5c(ccc(c35)C2=O)C(=O)N(CCCNCc2cc(OC)c(OC)c(OC)c2)C4=O)cc(OC)c1OC`, for which the GI50 was 1.02 µM and the TGI worked out at 2.49 µM.
On the same counts, the results for `CC(C)=CCc1cc(O)cc2c1OC(C=C(C)C)C1=C2C(=O)C2=C(NCCS2(=O)=O)C1=O` (configuration not stated) are 5.73 µM and 15.9 µM.
On the same counts, the results for `O=c1[nH]c(=O)n(C2CC(O)C(CO)O2)cc1CO` (configuration not stated) are 43.3 µM and more than 100 µM.
Taken in the same sequence, the figures for `Cc1nc2cnc(N)c(C#Cc3cncc(C(=O)Nc4ccc(CN5CCN(C)CC5)c(C(F)(F)F)c4)c3)c2nc1C` were 0.0646 µM and 0.566 µM.
As for `CC(=O)OC12c3ccccc3-c3ccccc3C1C1C(=O)N(C)C(=O)C12Cl` (configuration not stated), the TGI is more than 10 µM.
On the same count and under the same terms, as for `COc1c(OC)c(OC)c(C(=O)/C=C/c2ccccc2)c(OC)c1OC`, the figure is 17.9 µM; as for `COc1ccc(C(O)c2nccn2C)c(OC)c1` (configuration not stated), more than 100 µM.
As for `NS(=O)(=O)c1ccc(N(/C=C/C(=O)C(F)(F)F)CC(=O)c2ccc(Cl)cc2)cc1`, the GI50 is 22.3 µM and the TGI was determined as 86.7 µM.
On the same counts, the results for `CS(=O)(=O)CCCn1c(=O)c(Oc2ccc(F)cc2F)cc2cnc(NC3CCOCC3)nc21` are more than 25 µM and more than 25 µM.
On the same counts, the results for `N#C/C=C(\c1ccc([N+](=O)[O-])cc1)n1nnc2cc(Cl)c(Cl)cc21` are 1.78 µM and 4.28 µM.
Take `O=C(CC(O)(C(F)(F)F)C(F)(F)F)c1cc(CC(=O)C(O)(C(F)(F)F)C(F)(F)F)cc(CC(=O)C(O)(C(F)(F)F)C(F)(F)F)c1`: the TGI worked out at 3.35 µM.
For `CC1(C)OCCn2c1nc1c(N3CCOCC3)nc(-c3cnc(N)nc3)nc12`, the GI50 was 0.141 µM and the TGI came out at 1.84 µM.
Turning to `O=C(c1c(F)ccc(NS(=O)(=O)N2CC[C@@H](F)C2)c1F)c1c[nH]c2ncc(-c3cnc(C4CC4)nc3)cc12`, the GI50 is 0.576 µM and 2.24 µM; the TGI was > 10 µM and 32.8 µM.

Another experiment relates to K-562 leukemia. Description: NCI-60 cell line screen, 48 h.
Consider `COc1ccc(-c2oc(=O)ccc2-c2cc(OC)c(OC)c(OC)c2)cc1F`, for which the GI50 was 4.08 µM and the TGI is more than 100 µM.
On to `O=C(c1ccc(F)c(F)c1Nc1ccc(I)cc1F)N1CC(O)([C@@H]2CCCCN2)C1`, for which the GI50 is 0.216 µM and 0.574 µM; the TGI was 6.15 µM and > 10 µM.
In turn, `Oc1cc(O)c2c(c1)OC(c1ccc(O)c(O)c1)C(OC1(c3cc(O)c(O)c(O)c3)Oc3cc(O)cc(O)c3C(O)C1O)C2` (configuration not stated) registered a TGI of 43.6 µM.
Take `COc1cc(CNCCCN2C(=O)c3ccc4c5c(ccc(c35)C2=O)C(=O)N(CCCNCc2cc(OC)c(OC)c(OC)c2)C4=O)cc(OC)c1OC`: the GI50 is 0.309 µM and the TGI was 2.85 µM.
Taken in the same sequence, the figures for `CC(C)=CCc1cc(O)cc2c1OC(C=C(C)C)C1=C2C(=O)C2=C(NCCS2(=O)=O)C1=O` (configuration not stated) were 3.07 µM and 14.6 µM.
On the same counts, the results for `O=c1[nH]c(=O)n(C2CC(O)C(CO)O2)cc1CO` (configuration not stated) are more than 100 µM and more than 100 µM.
Compound `Cc1nc2cnc(N)c(C#Cc3cncc(C(=O)Nc4ccc(CN5CCN(C)CC5)c(C(F)(F)F)c4)c3)c2nc1C` came in with a TGI of 8.18 µM.
Same read-out and setting: next, `CC(=O)OC12c3ccccc3-c3ccccc3C1C1C(=O)N(C)C(=O)C12Cl` (configuration not stated): more than 10 µM; `COc1c(OC)c(OC)c(C(=O)/C=C/c2ccccc2)c(OC)c1OC`: 55.5 µM.
The same measure, in the same setting: next, `COc1ccc(C(O)c2nccn2C)c(OC)c1` (configuration not stated): more than 100 µM.
On to `NS(=O)(=O)c1ccc(N(/C=C/C(=O)C(F)(F)F)CC(=O)c2ccc(Cl)cc2)cc1`, for which the GI50 was 33.5 µM and the TGI amounted to 93.6 µM.
On the same counts, the results for `CS(=O)(=O)CCCn1c(=O)c(Oc2ccc(F)cc2F)cc2cnc(NC3CCOCC3)nc21` are more than 25 µM and more than 25 µM.
As for `N#C/C=C(\c1ccc([N+](=O)[O-])cc1)n1nnc2cc(Cl)c(Cl)cc21`, the GI50 was 2.39 µM and the TGI was more than 100 µM.
Consider `O=C(CC(O)(C(F)(F)F)C(F)(F)F)c1cc(CC(=O)C(O)(C(F)(F)F)C(F)(F)F)cc(CC(=O)C(O)(C(F)(F)F)C(F)(F)F)c1`, for which the TGI is more than 10 µM.
As to `CC1(C)OCCn2c1nc1c(N3CCOCC3)nc(-c3cnc(N)nc3)nc12`, the GI50 was 2.27 µM and the TGI is more than 100 µM.
On to `O=C(c1c(F)ccc(NS(=O)(=O)N2CC[C@@H](F)C2)c1F)c1c[nH]c2ncc(-c3cnc(C4CC4)nc3)cc12`, for which the GI50 is 3.68 µM and 3.12 µM; the TGI was more than 100 µM.

The subject of a further experiment is MALME-3M melanoma. In words: NCI-60 cell line screen, 48 h.
On to `COc1ccc(-c2oc(=O)ccc2-c2cc(OC)c(OC)c(OC)c2)cc1F`, for which the GI50 was 3.24 µM and the TGI was more than 100 µM.
For the compound `O=C(c1ccc(F)c(F)c1Nc1ccc(I)cc1F)N1CC(O)([C@@H]2CCCCN2)C1`, the GI50 was < 0.01 µM and 0.00181 µM; the TGI came to 0.0133 µM.
`Oc1cc(O)c2c(c1)OC(c1ccc(O)c(O)c1)C(OC1(c3cc(O)c(O)c(O)c3)Oc3cc(O)cc(O)c3C(O)C1O)C2` (configuration not stated) had a TGI of more than 100 µM.
Take `COc1cc(CNCCCN2C(=O)c3ccc4c5c(ccc(c35)C2=O)C(=O)N(CCCNCc2cc(OC)c(OC)c(OC)c2)C4=O)cc(OC)c1OC`: the GI50 is 0.334 µM and the TGI stood at 1.02 µM.
On the same counts, the results for `CC(C)=CCc1cc(O)cc2c1OC(C=C(C)C)C1=C2C(=O)C2=C(NCCS2(=O)=O)C1=O` (configuration not stated) are 0.159 µM and 0.834 µM.
Taken in the same sequence, the figures for `O=c1[nH]c(=O)n(C2CC(O)C(CO)O2)cc1CO` (configuration not stated) were more than 100 µM and more than 100 µM.
Taken in the same sequence, the figures for `Cc1nc2cnc(N)c(C#Cc3cncc(C(=O)Nc4ccc(CN5CCN(C)CC5)c(C(F)(F)F)c4)c3)c2nc1C` were 0.0339 µM and 0.163 µM.
Compound `CC(=O)OC12c3ccccc3-c3ccccc3C1C1C(=O)N(C)C(=O)C12Cl` (configuration not stated) yielded a TGI of more than 10 µM.
